Measured values: US5935973A, “Heterocyclcarboxamide derivatives and their use as therapeutic agents” (Knoll Aktiengesellschaft, priority 1995, dated 1999)

How the values were obtained:
D2 dopamine receptors = target: T1, D2 dopamine receptors (Rattus norvegicus, UniProt P61169); test: inhibition of tritiated (S)-sulpiride binding to D2 dopamine receptors in rat striatal tissue; settings: rat striatum; for Ki: tritiated (S)-sulpiride 1 nM, 4° C., 40 min; for inhibition at 1 µM: at 10^-6 M, tritiated (S)-sulpiride, read-out: % displacement of radio ligand, D2
T1 construct: Striatal tissue from the brains of male Charles River CD rats; from tissue; host or cells: rat striatum membranes
Procedure: Striatal tissue from the brains of male Charles River CD rats weighing between 140-250 g were homogenised in ice-cold 50 mM Tris-HCl buffer (pH 7.7 when measured at 25° C.) and centrifuged at 40,000 g for 10 minutes. The pellet was resuspended in Tris salts buffer (50 mM Tris-HCl buffer containing 120 mM NaCl, 5 mM KCl, 2 mM CaCl2 and 1 mM MgCl2 with the addition of 6 mM ascorbic acid; pH 7.7 when measured at 25° C.), and again centrifuged at 40,000 g for 10 minutes. The final pellet was stored at -80° C. Before each test the pellet was resuspended in Tris salts buffer (equivalent to 2 mg wet weight of tissue/ml). Aliquots (720 μl; equivalent to 1.44 mg wet weight of tissue/tube) of this suspension were then added to tubes containing the ligand (40 μl; 1 nM) and Tris salts buffer (40 μl; total binding) or spiroperidol (40 μl; 10 nM; non-specific binding) or test compound (40 μl; at a single concentration of 10^-6 M or at 6 concentrations ranging from 10^-11 -10^-4 M). The ligand was tritiated (S)-sulpiride and the mixture was incubated at 4° C. for 40 minutes before the incubation was terminated by rapid filtration.
The filters were washed with ice-cold Tris-HCl buffer and dried. The filters were punched out in to vials, scintillation fluid added and were left for about 20 hours before being counted by scintillation spectrophotometry. The percentage displacement of specific binding of the tritiated ligand was calculated for the single concentration (10^-6 M) of test compound. Displacement curves were then produced over a range of concentrations for those compounds which displaced ≥50% of specific binding of the tritiated ligand at 10^-6 M. The concentration which gave a 50% inhibition of specific binding (IC50) was obtained from the curve. The inhibition coefficient Ki was then calculated using the formula [formula] in [ligand] is the concentration of the tritiated ligand used and KD is the 2 equilibrium dissociation constant for the ligand.

5-HT1A receptors = target: T2, 5-HT1A receptors (Rattus norvegicus, UniProt P19327); test: inhibition of [3H]8-OH-DPAT binding to 5-HT1A receptors in rat hippocampal tissue; settings: rat hippocampus; for Ki: [3H]8-OH-DPAT 2 nM, 25° C., 30 min; for inhibition at 1 µM: at 10^-6 M, [3H]8-OH-DPAT, read-out: % displacement of radio ligand, 5-HT1A
T2 construct: Hippocampal tissue from the brains of male Sprague-Dawley rats; from tissue; host or cells: rat hippocampus membranes
T2 sequence (P19327 1-422): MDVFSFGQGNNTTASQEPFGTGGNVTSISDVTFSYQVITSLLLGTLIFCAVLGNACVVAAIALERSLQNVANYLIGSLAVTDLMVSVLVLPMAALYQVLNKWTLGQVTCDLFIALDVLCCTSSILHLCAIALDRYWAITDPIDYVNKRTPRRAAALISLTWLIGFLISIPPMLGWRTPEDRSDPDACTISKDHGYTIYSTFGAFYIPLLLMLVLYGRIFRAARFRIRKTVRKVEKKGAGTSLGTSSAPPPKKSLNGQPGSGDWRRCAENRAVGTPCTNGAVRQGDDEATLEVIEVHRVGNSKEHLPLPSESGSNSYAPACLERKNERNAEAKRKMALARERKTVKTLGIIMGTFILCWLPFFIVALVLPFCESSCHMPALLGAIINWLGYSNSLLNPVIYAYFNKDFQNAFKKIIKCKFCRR
Procedure: Hippocampal tissue from the brains of male Sprague-Dawley rats (Charles River; weight range 150-250 g) was homogenised in ice-cold 50 mM Tris-HCl buffer (pH 7.7 when measured at 25° C., 1:40 w/v) and centrifuged at 30,000 g at 4° C. for 10 minutes. The pellet was rehomogenised in the same buffer, incubated at 37° C. for 10 minutes and centrifuged at 30,000 g at 4° C. for 10 minutes. The final pellet was resuspended in 50 mM Tris-HCl buffer (pH 7.7) containing 4 mM CaCl2, 0.1% L-ascorbic acid and 10 μM pargyline hydrochloride (equivalent to 6.25 mg wet weight of tissue/ml) and used immediately in the binding assay. Aliquots (400 μl; equivalent to 2.5 mg wet weight of tissue/tube) of this suspension were added to tubes containing the ligand (50 μl; 2 nM) and distilled water (50 μl total binding) or 5-HT (50 μl; 10 μM; non-specific binding) or test compound (50 μl; at a single concentration of 10^-6 M or at 10 concentrations ranging from 10^-11 -10^-3 M). The ligand was [^3 H]8-hydroxy-2-(dipropylamino)tetralin ([^3 H]8-OH-DPAT) and the mixture was incubated at 25° C. for 30 minutes before the incubation was terminated by rapid filtration.
The filters were washed with ice-cold Tris-HCl buffer and dried. The filters were punched out into vials, scintillation fluid added and radioactivity determined by liquid scintillation counting. The percentage displacement of specific binding of the tritiated ligand was calculated for the single concentration (10^-6 M) of test compound. Displacement curves were then produced for those compounds which displaced ≥50% of specific binding of the tritiated ligand at 10^-6 M using a range of concentrations of the compound. The concentration which gave 50% inhibition of specific binding (IC50) was obtained from the curve. The inhibition coefficient Ki was then calculated using the formula [formula] in which [ligand] is the concentration of the tritiated ligand used and KD is the equilibrium dissociation constant for the ligand.

T1 sequence (P61169 whole entry): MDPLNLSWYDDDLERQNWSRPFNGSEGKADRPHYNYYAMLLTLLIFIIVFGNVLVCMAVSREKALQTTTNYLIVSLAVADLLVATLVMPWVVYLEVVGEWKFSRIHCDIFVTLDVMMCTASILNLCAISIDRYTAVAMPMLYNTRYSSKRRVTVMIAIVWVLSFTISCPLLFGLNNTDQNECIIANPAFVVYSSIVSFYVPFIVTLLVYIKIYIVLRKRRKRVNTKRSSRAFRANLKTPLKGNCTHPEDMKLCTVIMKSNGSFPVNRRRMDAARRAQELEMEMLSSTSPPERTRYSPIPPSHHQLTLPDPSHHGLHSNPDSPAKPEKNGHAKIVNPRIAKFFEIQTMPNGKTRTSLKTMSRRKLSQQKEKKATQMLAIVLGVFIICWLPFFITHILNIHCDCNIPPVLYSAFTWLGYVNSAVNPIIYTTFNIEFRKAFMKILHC

SMILES | Ki (D2 dopamine receptors) [nM] | Ki (5-HT1A receptors) [nM] | inhibition at 1 µM (D2 dopamine receptors) [%] | inhibition at 1 µM (5-HT1A receptors) [%]
O=C(NCC1CCN(CC2COc3ccccc3O2)CC1)c1cccc2cccnc12 (stereo not drawn) [Example 8, N-{[1-(1,4-benzodioxan-2-ylmethyl)-4-piperidyl]methyl}quinoline-8-carboxamide] | 95 | 12 | – | –
Cc1ncccc1C(=O)NCC1CCN(C[C@H]2COc3cccc(Cl)c3O2)CC1 [Example 9, (S)-N-{[1-(8-chloro-1,4-benzodioxan-2-ylmethyl)-4-piperidyl]methyl}-2-methylpyridine-3-carboxamide] | 37 | 54 | – | –
Nc1ccsc1C(=O)NCC1CCN(CC2COc3ccccc3O2)CC1 (stereo not drawn) [Example 16, 3-amino-N-{[1-(1,4-benzodioxan-2-ylmethyl)-4-piperidyl]methyl}thiophene-2-carboxamide] | 68 | 63 | – | –
Nc1ncccc1C(=O)NCC1CCN(C[C@H]2COc3cccc(C(F)(F)F)c3O2)CC1 [Example 20, (S)-2-amino-N-{[1-(8-trifluoromethyl-1,4-benzodioxan-2-ylmethyl)-4-piperidyl]methyl}pyridine-3-carboxamide] | 12 | 41 | – | –
COc1ccc2c(c1)O[C@@H](CN1CCC(CNC(=O)c3cccnc3N)CC1)CO2 [Example 7, (S)-2-amino-N{[1-(7-methoxy-1,4-benzodioxan-2-ylmethyl)-4-piperidyl]methyl}-pyridine-3-carboxamide] | 197 | 38 | – | –
Nc1ncccc1C(=O)NCC1CCN(C[C@H]2COc3cccc(Cl)c3O2)CC1 [Example 2, (S)-2-amino-N-{[1-(8-chloro-1,4-benzodioxan-2-ylmethyl)-4-piperidyl]methyl}-pyridine-3-carboxamide] | – | – | 104 | 97
COc1cccc2c1OC(CN1CCC(CNC(=O)c3cccnc3N)CC1)CO2 (stereo not drawn) [Example 11, 2-amino-N-{[1-(8-methoxy-1,4-benzodioxan-2-ylmethyl)-4-piperidyl]methyl}pyridine-3-carboxamide] | 41 | 19 | – | –
O=C(NCC1CCN(CC2COc3ccccc3O2)CC1)c1ccccn1 (stereo not drawn) [Example 6, N-{[1-(1,4-benzodioxan-2-ylmethyl)-4-piperidyl]methyl}pyridine-2-carboxamide] | 67 | 27 | – | –
Nc1ncccc1C(=O)NCC1CCN(C[C@H]2COc3cccc(F)c3O2)CC1 [Example 3, (S)-(-)-2-amino-N-{[1-(8-fluoro-1,4-benzodioxan-2-ylmethyl)-4-piperidyl]methyl}pyridine-3-carboxamide] | 32.9 | 18 | – | –
Cc1cccc2c1O[C@@H](CN1CCC(CNC(=O)c3cccnc3N)CC1)CO2 [Example 13, (S)-2-amino-N-{[1-(8-methyl-1,4-benzodioxan-2-ylmethyl)-4-piperidyl]methyl}pyridine-3-carboxamide] | 33 | 38 | – | –

The remaining lines, values ahead:

Ki (D2 dopamine receptors) [nM] | Ki (5-HT1A receptors) [nM] | inhibition at 1 µM (D2 dopamine receptors) [%] | inhibition at 1 µM (5-HT1A receptors) [%] | SMILES
80 | 70 | – | – | O=C(NCC1CCN(C[C@H]2COc3ccc(Cl)cc3O2)CC1)c1cccc2cccnc12 [Example 23, (S)-N-{[1-(7-chloro-1,4-benzodioxan-2-ylmethyl)-4-piperidyl]methyl}quinoline-8-carboxamide]
32.2 | 41.5 | – | – | Nc1ncccc1C(=O)NCC1CCN(C[C@H]2COc3ccc(Cl)cc3O2)CC1 [Example 1, (S)-(-)-2-amino-N-{[1-(7-chloro-1,4-benzodioxan-2-ylmethyl)-4-piperidyl]methyl}pyridine-3-carboxamide]
21 | 16 | – | – | O=C(NCC1CCN(C[C@H]2COc3ccc(Cl)cc3O2)CC1)c1ccccn1 [Example 12, (S)-N-{[1-(7-chloro-1,4-benzodioxan-2-ylmethyl)-4-piperidyl]methyl}pyridine-2-carboxamide]
109 | 57 | – | – | Nc1ncccc1C(=O)NCC1CCN(CC2COc3ccc(F)cc3O2)CC1 (stereo not drawn) [Example 10, 2-amino-N-{[1-(7-fluoro-1,4-benzodioxan-2-ylmethyl)-4-piperidyl]methyl}pyridine-3-carboxamide]
36 | 32 | – | – | Nc1ccsc1C(=O)NCC1CCN(C[C@H]2COc3ccc(Cl)cc3O2)CC1 [Example 17, (S)-3-amino-N-{[1-(7-chloro-1,4-benzodioxan-2-ylmethyl)-4-piperidyl]methyl}thiophene-2-carboxamide]
– | – | 84 | 90 | Nc1ncccc1C(=O)NCC1CCN(CC2COc3ccccc3O2)CC1 (stereo not drawn) [Example 4, 2-amino-N-{[1-(1,4-benzodioxan-2-ylmethyl)-4-piperidyl]methyl}pyridine-3-carboxamide]
15 | 35 | – | – | O=C(NCC1CCN(C[C@H]2COc3ccc(Cl)cc3O2)CC1)c1cccnc1 [Example 22, (S)-N-{[1-(7-chloro-1,4-benzodioxan-2-ylmethyl)-4-piperidyl]methyl}pyridine-3-carboxamide]
110 | 83 | – | – | Cc1ncccc1C(=O)NCC1CCN(C[C@H]2COc3ccc(Cl)cc3O2)CC1 [Example 18, (S)-N-{[1-(7-chloro-1,4-benzodioxan-2-ylmethyl)-4-piperidyl]methyl}-2-methylpyridine-3-carboxamide]
64.6 | 40.8 | – | – | Nc1ncccc1C(=O)NCC1CCN(C[C@H]2COc3ccccc3O2)CC1 [Example 15, (S)-2-amino-N-{[1-(1,4-benzodioxan-2-ylmethyl)-4-piperidyl]methyl}pyridine-3-carboxamide]
43.9 | 26 | – | – | Cc1ccc(C(=O)NCC2CCN(C[C@H]3COc4ccc(Cl)cc4O3)CC2)c(N)n1 [Example 14, (S)-2-amino-N-{[1-(7-chloro-1,4-benzodioxan-2-ylmethyl)-4-piperidyl]methyl}-6-methylpyridine-3-carboxamide]
55.6 | 94 | – | – | Cc1ccc2c(c1)O[C@@H](CN1CCC(CNC(=O)c3cccnc3N)CC1)CO2 [Example 5, (S)-2-amino-N-{[1-(7-methyl-1,4-benzodioxan-2-ylmethyl)-4-piperidyl]methyl}pyridine-3-carboxamide]
